Patent US7173021B2, “Synthesis of temozolomide esters as potent anticancer pro-drugs for topical and transdermal applications in treatments of cancers” (Tianjin North Pharm Sci-Tech Co., Ltd., priority 2004, dated 2007)
Converted amounts (≈) assume the structure as drawn. “Also recorded” adds a separate entry of the source.

Key:
B16 (mouse melanoma) = experiment: In vitro tumour cell growth inhibition (MTT), B16; type: cell-based; settings: Table 2 experiment, 96 h
Experimental: (§1) Temozolomide (white powder), temozolomide acid (white powder) and temozolomide-8-carboxylate hexyl (white scale crystal) were made in house. For the estimation of in vitro tumour cell growth inhibition, MV3 (human melanoma), M14 (human melanoma), B16 and B16-BL6 (mouse melanoma), SHG-44, TJ899 and TJ905 (human glioma), MCF-7 (human breast), HCT-8 (human colon), A549 (human non small lung), Bel7402 (human hepatocellulor), and BGC-823 (human stomach) were used. All tumour cells were cultured in RPMI-1640 medium supplemented with 10% fetal bovine serum (FBS) at 37° C. in a humidified 5% CO2 incubator.
(§2) After being harvested from culture flasks, a cell suspension of 1×10^4/ml was made by using 1640 RPMI medium supplemented with 10% fetal bovine serum. 100 μl (contains 1000 tumour cells) of the cell suspension was seeded per well of 96-well flat-bottom Costar culture plates at 37° C. in a humidified 5% CO2 incubator for 24 hrs before introducing drugs. Each tested compounds was made for five different concentrations and 100 μl of the each concentration was introduced into parallel three wells; control wells were added with 100 μl of plain medium alone; fluorouracil (a chemotherapeutic antitumour drug) was used as the positive control. Cells were then incubated for 96 h. Proliferative response and cell death were determined using MTT (3-(4,5-dimethylthiazolyl)-2,5-diphenyl-tetrazolium bromide) assay.
(§3) MTT assay: Following incubation of cells with the tested compounds for 96 h, 100 μl of 0.4 mg/ml MTT in RPMI 1640 was added to each well and the plate was incubated at 37° C. for 4 h. The plate was then centrifuged and followed by removal of medium. 150 μl of DMSO was then added to dissolve formazan crystal. DMSO-added plates were placed on a plate shaker for 5 min and absorbance was measured spectrophotometrically at 540 nm (with reference wavelength at 450 nm) using a Benchmark microtiter plate reader (Bio-Rad 550, Bio-Rad Laboratories, CA, U.S.A.).
(§4) The IC50 was calculated from the curve of the tested compound concentrations against the inhibition rate of the tumour cells. Table 1 summarized the experiment results by using six human cancer cell lines, HCT-8 (colon carcinoma), A549 (non small lung carcinoma), MCF-7 (breast), Bel7402 (hepatocellulor carcinoma), BGC-823 (stomach adenocarcinoma), and MV3 (melanoma). Table 2 summarized the results from the experiment results by using two human melanoma cell lines, MV3 and M14, two mouse melanoma cell lines, B16 and B16-BL6, and three human glioma cell lines, TJ899, SHG-44 and TJ905.

TJ905 (human glioma) = experiment: In vitro tumour cell growth inhibition (MTT), TJ905; type: cell-based; settings: Table 2 experiment, 96 h
Experimental: as §1, §2, §3, §4

MV3 (human melanoma) = experiment: In vitro tumour cell growth inhibition (MTT), MV3; type: cell-based; settings: Table 2 experiment (separate), 96 h
Experimental: as §1, §2, §3, §4

TJ899 (human glioma) = experiment: In vitro tumour cell growth inhibition (MTT), TJ899; type: cell-based; settings: Table 2 experiment, 96 h
Experimental: as §1, §2, §3, §4

M14 (human melanoma) = experiment: In vitro tumour cell growth inhibition (MTT), M14; type: cell-based; settings: Table 2 experiment, 96 h
Experimental: as §1, §2, §3, §4

B16-BL6 (mouse melanoma) = experiment: In vitro tumour cell growth inhibition (MTT), B16-BL6; type: cell-based; settings: 96 h
Experimental: as §1, §2, §3, §4

SHG-44 (human glioma) = experiment: In vitro tumour cell growth inhibition (MTT), SHG-44; type: cell-based; settings: 96 h
Experimental: as §1, §2, §3, §4

[1] = In vitro permeation and metabolism, Franz diffusion cell, human skin; type: in vitro ADME
Text: (§5) Jacketed Franz-type diffusion cells were used throughout the study and the barrier (12) (skin or silicone membrane) was mounted between the two chambers (14, 16) (2.8–3.4 cm^2 available surface area) with the dermal side in contact with the receiver solution (FIG. 2). The diffusion chambers (10) comprised a barrier of skin or silicone membrane (12) mounted between two chambers (14, 16). A cap (18) formed the donor compartment (14). The second receptor compartment (16) contained a receptor cell (20) with a stirring bar (22), sampling port (24) and cover (26). The stirring bar (22) was stirred by means of a magnet plate (28) having a rotating magnet. The receptor compartment comprised a water jacket (30) having a water inlet (32) and a water outlet (34).
(§6) Three types of materials were used in permeation studies. • 1. Silicone membrane (Silastic Medical Grade, 500-5, Dow Corning 0.005 in thick) was cut into circular sections (2 cm diameter) and washed with double distilled water prior to use. • 2. Full-thickness rat skin was obtained from Male Wistar rats aged 10 to 12 weeks and weighing 250 to 300 g, which were sacrificed by cervical dislocation, the abdomen shaved and the intact skin removed by dissection. Following removal of fat tissue, the skin was cut into circular pieces and used immediately. • 3. Samples of adult human epidermis were purchased from the Stephen Kirby Skin Bank (UK). The samples were from the leg, were stored at −18° C. and used within one week. Experiments
The membrane (as detailed above) was mounted on the diffusion cell (10), on which the surface area available for diffusion of each cell was about 2.8–3.4 cm^2. The cell cap (18) was placed on the membrane (12), and it was sealed with Parafilm® connecting the cell cap, membrane, and receptor cell. […] The concentration of each sample solution was determined by using HPLC. […]
As stated above, after the removal of receptor solution, the receiver compartment was refilled with an identical volume of receptor fluid. […] As a consequence, it was necessary to mathematically correct each successive sample concentrations, in the present invention, which was determined by applying the following equation:
(§7) [formula] where Ct is the actual current concentration of drug in the receptor phase at time t, Cmt is the apparent (i.e. measured) current concentration of drug in the receptor phase, Vs is the sample volume withdrawn for analysis, Vr is the volume of receptor solution, and ΣCm is the summed total of the previous measured concentrations.
(§8) Finally, the amount of drug penetrating the skin per unit area was calculated by dividing the obtained concentrations by the surface area available for diffusion cell and this value was different for each individual cell. […]

[2] = Solubility in 10% v/v propylene glycol; type: physicochemical; settings: 10% v/v propylene glycol aqueous solution, aqueous with cosolvent or surfactant or cyclodextrin, thermodynamic from solid, ambient conditions, stirred 5 hours, read-out: Solubility, Concentration
Experimental: The potential of temozolomide esters used as topical and transdermal prodrugs is first proven through studies of their solubility. That is a decreased trend of solubility in an aqueous solution with increase of the length of the ester hydrocarbon alkyl chain of the temozolomide esters. It is clear the solubility constantly decreases from the methyl ester to the octyl ester, while temozolomide itself is 3.0 mg/ml similar to that of the methyl ester. […] Similarly to the esters, the solubility of the temozolomide amide products in the aqueous solution is considerably lower than that of temozolomide.
The solubility of temozolomide and the temozolomide esters was determined in 10% v/v propylene glycol by stirring an excess of the solid products at room temperature for 5 hours. The mixtures were then filtered, diluted with sample solvent and analysed using HPLC.

pig liver esterase = experiment: Enzymatic metabolizing study with pig liver esterase (1H NMR); type: in vitro ADME; settings: 37° C., pH 7.4 buffer; ester complete at 10 minutes; amide followed up to 8 hours
Experimental: First the present invention establishes the metabolised process of the temozolomide esters by pig liver esterase in vitro. ^1H NMR spectra 1 (FIG. 1) records the degradation profile of the temozolomide methyl ester under incubation condition (Rathbone D L, 1999). […] Finally, at 10 minutes, the intensity of the singlet at 3.58 ppm grows to the grade similar to the original of the two singlets at 3.63 and 3.65 ppm, which while are completely eliminated. […] This discovery establishes the solid foundation for the temozolomide esters to be considered as the potential anticancer pro-drugs.
Enzymatic metabolizing studies of the temozolomide methyl ester was carried out using pig liver esterase enzyme from Sigma [a suspension in 3.2 M ammonium sulphate solution pH 8; 200 unit/mg protein (14 mg protein/ml)]. • A. To a NMR tube 2 mg of the temozolomide methyl ester was added, followed by 0.2 ml of d6-DMSO, 0.5 ml D2O of pH 7.4 sulphate buffer and finally 50 μl of the enzyme solution. Record a ^1H NMR spectrum immediately, then the mixture was incubated at 37° C. and record a ^1H NMR spectrum at each 5 minutes time interval. […] The samples were dissolved in d6-DMSO in an NMR tube, 50 μl of enzyme solution was added and the solution incubated at 37° C.

[3] = In vitro permeation, Franz diffusion cell, silicone membrane; type: in vitro ADME; settings: 37° C., 8 h, FIGS. 3-5
Text: as §5, §6
The membrane (as detailed above) was mounted on the diffusion cell (10), on which the surface area available for diffusion of each cell was about 2.8–3.4 cm^2. The cell cap (18) was placed on the membrane (12), and it was sealed with Parafilm® connecting the cell cap, membrane, and receptor cell. The capacity of each receptor cell was around 25–26 ml, which was filled with receptor solution and was completely in contact with the membrane sheet. During the course of experiment, the solution was continuously stirred by teflon-coated magnetic bar (22) placed in the cell (20). The temperature was maintained at 37° C. by a thermostatic water pump that circulated the water through the jacket (30) surrounding the cell body. The system was allowed to equilibrate under these conditions for half an hour. Finally, the prepared sample solution (2 ml) was added into the donor cap cell, and it was sealed with Parafilm® to minimize the evaporation of donor solution. 1 ml of receptor solution was removed every 30 minutes for 5 hours and then every 60 minutes for a further 3 hours. The volumes withdrawn were always replaced with equal volumes of fresh receptor solution to maintain constant volume. The concentration of each sample solution was determined by using HPLC.
For every sample, six determinations were performed on human and rat skin, and three determinations were carried out through artificial silicone membrane.
As stated above, after the removal of receptor solution, the receiver compartment was refilled with an identical volume of receptor fluid. This causes of the dilution of receptor solution leading to an under determination of the sample concentration. As a consequence, it was necessary to mathematically correct each successive sample concentrations, in the present invention, which was determined by applying the following equation:
as §7, §8

[4] = Measured log P, octanol/water; type: physicochemical; settings: octanol/water system; read-out: measured Log P (mLog P)
Experimental: Log P values of temozolomide (1) and the temozolomide esters were calculated using TSAR (Oxford Molecular, Oxford, UK), Molecular Modeling Pro (ChemSW, Fairfield, Calif.) and Chem Office 7.0 (CambridgeSoft, Cambridge, UK) programmes. Calculated Log P values were verified for temozolomide and the temozolomide hexyl ester by measuring the octanol/water coefficient (Table 4).

| IC50 B16 (B16 (mouse melanoma)) [µg/mL] | IC50 TJ905 (TJ905 (human glioma)) [µg/mL] | IC50 MV3 (MV3 (human melanoma)) [µg/mL] | IC50 TJ899 (TJ899 (human glioma)) [µg/mL] | IC50 M14 (M14 (human melanoma)) [µg/mL] | IC50 B16-BL6 (B16-BL6 (mouse melanoma); Table 2 experiment) [µg/mL] | IC50 SHG-44 (SHG-44 (human glioma); Table 2 experiment) [µg/mL] | Permeation through human skin ([1]; 37° C., FIG. 9) | Metabolism within human skin to temozolomide acid ([1]; human skin) | solubility at 5 h [2] [µg/mL] | IC50 (B16 (mouse melanoma); Mus musculus) [µg/mL] | IC50 (TJ905 (human glioma); Homo sapiens) [µg/mL] | IC50 (MV3 (human melanoma); Homo sapiens) [µg/mL] | IC50 (TJ899 (human glioma); Homo sapiens) [µg/mL] | IC50 (M14 (human melanoma); Homo sapiens) [µg/mL] | logP [4] | IC50 (B16-BL6 (mouse melanoma); Mus musculus, B16-BL6, Table 2 experiment) [µg/mL] | IC50 (SHG-44 (human glioma); Homo sapiens, SHG-44, Table 2 experiment) [µg/mL] | SMILES | Degradation to temozolomide acid by pig liver esterase (pig liver esterase) | Permeation through synthetic silicone membrane [3] |
| --- | --- | --- | --- | --- | --- | --- | --- | --- | --- | --- | --- | --- | --- | --- | --- | --- | --- | --- | --- | --- |
| 10.000 (≈ 54.9 µM) | 6.860 (≈ 37.7 µM) | 0.647 (≈ 3.55 µM) | 5.600 (≈ 30.7 µM) | 0.558 (≈ 3.06 µM) | 61.765 (≈ 339 µM) | 1.261 (≈ 6.92 µM) | – | – | – | – | – | – | – | – | – | – | – | CN(C)/N=N/c1[nH]cnc1C(N)=O [Darcabazine] | – | – |
| – | – | – | – | – | – | – | notably better than temozolomide | resistant to metabolism | 1800 (≈ 7190 µM) | – | – | – | – | – | – | – | – | CCCCNC(=O)c1ncn2c(=O)n(C)nnc12 [Temozolomide n-butyl amide, 3-Methyl-N-(n-butyl)-4-oxoimidazo[5,1-d]-1,2,3,5-tetrazine-8-carboxamide] | no the temozolomide acid was observed; also recorded: gradually decomposed into un-identifiable products without the observation of temozolomide acid | – |
| – | – | – | – | – | – | – | – | – | 3000 (≈ 15500 µM) | 61.9 (≈ 319 µM) | > 100 | 7.86 (≈ 40.5 µM) | > 100 | > 100 | -0.66 | > 100 | 9.04 (≈ 46.6 µM) | Cn1nnc2c(C(N)=O)ncn2c1=O [Temozolomide, 8-Carbamoyl-3-methylimidazo[5,1-d]-1,2,3,5-tetrazine-4(3H)-one] | – | can not pass through the synthetic membrane easily; also recorded: lowest permeation |
